Data on three molecules can be found in patent publication US6750178B1, “Agrochemical composition” (Syngenta Limited, priority 1999, dated 2004).

Common to all, as to assay type: in vivo
One test deals with SIDSP. As to the kind of experiment: Glass-house ED90 of paraquat dichloride plus adjuvant, SIDSP. As to conditions: paraquat dichloride 15, 45, 135 and 270 g/ha paraquat ion; adjuvant 0.1% w/v; 18 days after treatment.
For test [1], the system named is Soghinm halepenise(SORHA). As to the kind of experiment: Glass-house ED90 of glyphosate salts, SORHA. As to conditions: calculated dose for 90% control; rates 500-4000 glyphosate acid equivalent/ha; AL2042 0.25% w/v with all treatments; 22 days after treatment. The source says: This Example illustrates the use of salts of glyphosate acid and the adjuvants of Formula (I).
Glyphosate trimesium and the glyphosate salts of the indicated adjuvants of formula (I) were applied to Soghinm halepenise(SORHA) at 500, 1000, 2000 and 4000 glyphosate acid equivalent/ha. All treatments were made up in deionised water and applied using a tracksprayer with a 11002 nozzle at a spray application volume of 200 l/ha . All treatments were replicated 3 times. After spraying the plants were laid out in a glass-house and maintained at a temperature of 24° C. by day and 19° C. by night. A visual assessment of % control was carried out 22 days after treatment and calculated doses for 90% control (ED90) were derived. AL2042 alkylpolygylcoside was used at 0.25% w/v as additional surfactant with all treatments. It will be appreciated that a low ED90 value indicates high activity.

The test system of test [2] is Abutilon theophrasti (ABUTH). As to the kind of experiment: Glass-house visual % control with potassium glyphosate plus adjuvant. As to conditions: potassium glyphosate 500 g glyphosate acid equivalent/ha, adjuvant 0.2% w/v, 200 l/ha, 16 days after treatment, 0=unaffected, 100=complete kill. Here is the method:
Potassium glyphosate was applied at 500 g glyphosate acid equivalent/ha to Abutilon theophrasti (ABUTH) plants grown in the glass-house. All treatments were made up in deionised water and applied using a tracksprayer with a 11002 nozzle at a spray application volume of 200 l/ha . All treatments were replicated 4 times. After spraying the plants were laid out in a glass-house and maintained at a temperature of 24° C. by day and 19° C. by night. The JEFFAMINE adjuvants were used in a proportion 0.2% w/v. A visual assessment of % control, where 0=unaffected and 100=complete kill, was carried out 16 days after treatment.

In test [3] the test system is Ipomoea hederacea (IPOHE). As to the kind of experiment: Glass-house visual % control with potassium glyphosate plus adjuvant, IPOHE. The settings on record: potassium glyphosate 300 g glyphosate acid equivalent/ha, AL2042 0.2% w/v, CRODAFOS T5A salts 0.2% w/v phosphate ester acid equivalent, 16 days after treatment. The source says:
This Example illustrates the use of a salt of ethoxy (5 moles of EO) isotridecyl phosphate, ester in the acid form (CRODAFOS T5A) with JEFFAMINE ED600. CRODAFOS T5A is a mixture of mono and di esters. CRODAFOS is a tradename of Croda.
Potassium glyphosate, in combination with the adjuvants specified below, was applied to Ipomoea hederacea (IPOHE) at 300 g glyphosate acid equivalent/ha. All treatments were made up in deionised water and applied using a tracksprayer with a 11002 nozzle at a spray application volume of 200 l/ha. All treatments were replicated 4 times. After spraying the plants were laid out in a glass-house and maintained at a temperature of 24° C. by day and 19° C. by night. A visual assessment of % control was carried out 16 days after treatment.
The AL2042 was applied at 0.2% w/v and the CRODAFOS T5A salts were applied at 0.2% w/v phosphate ester acid equivalent. The Crodafos T5A potassium salt was prepared by neutralising the phosphate ester in its acid form with potassium hydroxide to pH6. The CRODAFOS T5A JEFFAMINE ED600 salt was prepared by neutralising the phosphate ester in its acid form with JEFFAMINE ED600 to pH6.

Structures are written as SMILES.

`C[n+]1ccc(-c2cc[n+](C)cc2)cc1` [Control — No adjuvant, Paraquat dichloride]: the “ED90 SIDSP” value with SIDSP is on record as “(>270) g paraquat ion per litre”.
`C[S+](C)C.O=C([O-])CNCP(=O)(O)O` [Glyphosate trimesium]: the “SORHA — ED90” value in test [1] is reported as 1410 gae/ha.
As to `O=C(O)CNCP(=O)([O-])O.[K+]` [No adjuvant, Potassium glyphosate], in test [2], the “% control” value was found to be 37%. In test [3], the “IPOHE — % control” value turned out to be 64%.
